Assay results as given in patent publication EP4772186A1, “USE AND COMPOSITION OF POSTBIOTIC OF LACTOBACILLUS PARACASEI ET-22” (Inner Mongolia Yili Industrial Group Co., Ltd., priority 2023, dated 2025).

Experiments:
[1] = tested on: multi-species biofilm; test: biomass of multi-species biofilm, crystal violet staining; assay type: cell-based, halitosis subjects (saliva)
Method: The association between biofilm biomass and halitosis degree were analyzed by evaluating biofilm formation under intervention with ET-22 viable bacteria, heat-inactivated bacteria, lysate, NAD, 2-hydroxy-3-phenylpropionic acid and peptidoglycan. Test method included the following.
(§1) Lysate Group: 10 µl of saliva was added to a 96-well plate, followed by separate addition of ET-22 viable bacteria (1.0×10^9 CFU/ml), ET-22 heat-inactivated bacterial cells (obtained by inactivating viable bacteria at 1.0×10^9 CFU/ml), and lysate (obtained by inactivating and filtering viable bacteria at 1.0×10^9 CFU/ml), each at 100 µl. Then, 80 µl of SHI medium was added. The plate was placed in an anaerobic box and cultured anaerobically at 37°C for 10 hours. Six replicates were set for each group.
as §1, with “NAD” for “Lysate”, “heat-inactivating” for “inactivating”, “NAD (100 µg/ml),” for “lysate (obtained by inactivating and filtering viable bacteria at 1.0×10^9 CFU/ml),”, “group. […]” for “group.”
(5) The well plate was placed in a microplate reader and the biofilm biomass was measured at 600 nm.

[2] = tested on: Solobacterium moorei; test: in vitro oral biofilm model, sequencing: relative abundance; assay type: cell-based
Method: 100 µl of saliva was added to a 24-well plate, then 100 µl of the corresponding concentration solution was added respectively to the experimental groups, and finally 800 µl of SHI medium was added. The plate was placed in an anaerobic box and cultured anaerobically at 37°C for 10 hours. Then, the supernatant was discarded, and the multi-species biofilm adhered to the well plate was obtained. After discarding the supernatant from the incubated biofilm, the biofilm adhered to the bottom of the well plate was re-suspended with sterile water by pipetting, transferred to a 1.5 ml centrifuge tube, and stored until gene sequencing was performed.
Based on sequencing results, halitosis-causing pathogenic bacteria in the biofilm were identified. Four key halitosis-causing pathogenic bacteria were identified: Fusobacterium nucleatum, Streptococcus mutans, Prevotella intermedia, and Solobacterium moorei. All four bacteria had been proven to be positively correlated with VSC concentration. […] Therefore, this example adopts lysate, NAD, 2-hydroxy-3-phenylpropionic acid, and polypeptide GP(Hyp)GAG to intervene in halitosis-causing pathogenic bacteria in the biofilm, evaluating changes in the relative abundance of pathogenic bacteria after intervention. Additionally, Prevotella intermedia is a periodontal pathogen that can produce indole via the tryptophan metabolic pathway. […]

O=C(O)C(O)Cc1ccccc1 (stereo not shown) [2-hydroxy-3-phenylpropionic acid]
biofilm biomass ([1]; compared with CK group, optical density, pure components 100 µg/ml, others from 1.0×10^9 CFU/ml, 37°C 10 hours): significant decrease
intervention effect on the biofilm biomass ([1]; relative to ET-22 viable bacteria and heat-inactivated bacteria): better
growth of Solobacterium moorei (relative abundance) ([2]; multi-species biofilm, 37°C 10 hours): significantly inhibit the growth
inhibitory effect on Solobacterium moorei ([2]; relative to ET-22 viable bacteria or ET-22 heat-inactivated bacteria): better
